Measurements taken from ChEMBL document CHEMBL4888484, “Replenishing the malaria drug discovery pipeline: Screening and hit evaluation of the MMV Hit Generation Library 1 (HGL1) against asexual blood stage Plasmodium falciparum ,using a nano luciferase reporter read-out” (2022).

Legend:
Plasmodium falciparum [1] = experiment: Hit confirmation in dose-response curve in NF54 nanoGlo assay, at 72h; format: functional, organism-based, Erythrocyte; set-up: timepoint 72 hour; details: Plasmodium falciparum, NF54, Erythrocyte, 72 h
Plasmodium falciparum [2] = experiment: Hit confirmation in dose-response curve in Dd2 pLDH assay, at 72h; format: functional, organism-based; set-up: timepoint 72 hour; details: Dd2, Erythrocyte
Plasmodium falciparum [3] = experiment: Hit confirmation in dose-response curve in NF54 pLDH assay, at 72h; format: functional, organism-based; set-up: timepoint 72 hour; details: NF54, Erythrocyte
[4] = Hit confirmation in dose-response curve in HepG2 cytotoxicity assay, at 72h; format: toxicity, cell-based; set-up: timepoint 72 hour; details: human, HepG2 cells
Plasmodium falciparum [5] = experiment: Hit confirmation in dose-response curve in NF54 nanoGlo assay, at 12h; format: functional, organism-based, Erythrocyte; set-up: timepoint 12 hour; details: Plasmodium falciparum, NF54, Erythrocyte, 12 h

Structure (SMILES)	IC50 (Plasmodium falciparum [1]) [µM]	IC50 (Plasmodium falciparum [2]) [µM]	IC50 (Plasmodium falciparum [3]) [µM]	IC50 at 72 h [4] [µM]	IC50 (Plasmodium falciparum [5]) [µM]
Oc1ccc(-c2nnc(-c3ccc(O)cc3)nn2)cc1	1.95	3.09	5.62	> 10	5.13
Oc1ccccc1CNc1cccc2cccnc12	4.37	8.13	> 10	> 10	8.51
Fc1ccccc1N1CCN(C2CCN(Cc3c[nH]c4ccccc34)CC2)CC1	1.82	3.24	4.07	> 10	> 10
COc1cc(OC)cc(C(=O)Nc2ccc3nc(N4CCC(C)CC4)cc(C)c3c2)c1	3.16	5.01	> 10	> 10	6.76
C=Cn1cc[n+](CC(=O)c2ccc(-c3ccccc3)cc2)c1	3.09	2.63	3.47	> 10	> 10
CNc1nc(NCc2ccccc2)nc2ccccc12	1.78	1.07	2.63	> 10	10.2
Cc1cc(N2CC(OCc3ccccc3)C2)nc(Nc2cccc(O)c2)n1	1.38	1.45	2.63	> 10	2.88
O=C(Nc1cccnc1)c1ccc(-c2ccc(Cl)c(Cl)c2)o1	2.24	7.94	8.32	> 10	1.66
C[C@H]1Cc2cc(C(=O)NCc3nc(C(F)(F)F)n[nH]3)ccc2O1	4.27	> 10	> 10	> 10	1.45
Cc1cc[n+]2c(-c3ccccc3)cc(-c3ccccc3)nc2c1	1.51	1.78	2.57	> 10	> 10
COc1nc(NC[C@H]2CCCN2C(C)C)ncc1F	1.32	> 10	1.7	> 10	> 10
Cc1cc(C)c(NC(=O)OCc2cccc3cccnc23)c(C)c1	1.05	2.29	2.82	> 10	> 10
Cc1cc(OCCOCCNCCN)cc(C(C)C)c1	4.68	10.7	> 10	> 10	> 10
COc1nc(-c2cccc(C(=O)N3C[C@@H]4CC[C@H](C3)C(=O)N4)c2)ncc1F	0.479	> 10	0.813	> 10	> 10
CN1CCC(n2ncc3[nH]c(-c4ccc(C(F)(F)F)cc4)nc32)CC1	0.692	1.2	1.51	> 10	1.32
COc1ccc(CC(=O)N2N=C(C)C[C@]2(O)c2cccnc2)cc1	2.95	> 10	> 10	> 10	1.02
O=C1NC(=O)c2ccc3c4c(ccc1c24)C(=O)N(c1ccccc1)C3=O	6.03	1.66	3.55	> 10	> 10
COc1cccc(N2C(=O)C[C@]3(CC3(c3ccccc3)c3ccccc3)C2=O)c1	4.07	> 10	> 10	> 10	0.832
COc1ccc(-c2c(-c3cccc(OC)c3)[nH]c3c2c(=O)[nH]c(=O)n3C)cc1	> 10	> 10	> 10	> 10	> 10
CCCc1cc(-c2nc(-c3ccc(-n4nc(C)cc4N)cc3)no2)n(C)n1	0.871	1.86	1.82	> 10	> 10
O=C(Nc1nc2cccc(Cl)c2o1)c1cccc(F)c1	1.32	2.51	2	> 10	> 10
COc1ccc([C@H](NC(=O)CCc2ccccc2)c2c(O)ccc3ccccc23)cc1	2.45	5.62	9.33	> 10	1.48
CCCn1ccnc1-c1cn(Cc2cc3ccccc3[nH]2)nn1	2.82	4.79	5.37	> 10	> 10
NCc1cccc(C(=O)N2CCc3cc4ccc3[C@@H]2c2cccc(c2)OCCCNC(=O)c2cc(ccc2O)O4)c1	1.51	3.72	6.92	> 10	3.72
CC(=O)c1cc(-c2cc(O)cc(CC[C@H]3CCCCN3)c2)ccc1O	1.51	1.55	2.04	> 10	2.95
O=C(Nc1ccc(C2(c3ccc(NC(=O)c4ccc(F)cc4)cc3)c3ccccc3C(=O)c3ccccc32)cc1)c1ccc(F)cc1	2.04	8.13	5.89	> 10	5.01

Structure (SMILES)	IC50 (Plasmodium falciparum [1]) [µM]	IC50 (Plasmodium falciparum [2]) [µM]	IC50 (Plasmodium falciparum [3]) [µM]	IC50 at 72 h [4] [µM]	IC50 (Plasmodium falciparum [5]) [µM]
CN1CCC(N2CCN(Cc3ccc4cc(O)ccc4c3)CC2)CC1	1.66	1.38	1.91	> 10	4.68
Cc1ccc(C(=O)Nc2cc3c4c(c2)C2CCCC2CN4CC2CCCC32)cc1 (stereo not given)	2.4	4.17	3.89	> 10	9.12
Oc1ccc2cc(CN3CCC[C@H](CN4CCCC4)C3)ccc2c1	1.2	2.63	1.74	> 10	2.45
CCN(CC)CC(O)COc1c(Br)cc(C(C)(C)c2cc(Br)c(OCC(O)CN(CC)CC)c(Br)c2)cc1Br (stereo not given)	0.603	1.12	1.29	5.75	1.2
CNc1nc(NCCc2ccccc2)nc2ccccc12	0.912	0.661	1.86	> 10	> 10
O[C@@]1(CN2CCC(COc3ccc4c(c3)CCC4)CC2)CCCNC1	2.14	2.51	3.47	> 10	6.31
CNc1nc(Nc2ccc3c(c2)OCCO3)nc2ccccc12	0.851	1.17	1.17	> 10	1.91
COc1ccc(-c2csc(-n3cc(C4=CCN(CCO)CC4)cn3)n2)cc1	5.13	> 10	5.5	> 10	> 10
Cc1cc(OC[C@@H](O)CNC(C)(C)CC(C)(C)C)cc(C)c1Cl	2.4	4.07	8.32	10.5	4.37
CN(C)c1nc(N)cc(-c2cccc3cccnc23)n1	2	3.47	3.8	> 10	> 10
Cc1ccc(CC[C@H]2Nc3ccccc3C(c3ccccc3)(c3ccccc3)O2)o1	1.86	5.37	3.47	> 10	9.33
CCNc1ccnc(NCc2nc(-c3cccc(F)c3)c(-c3ccccn3)[nH]2)n1	3.16	> 10	5.75	> 10	8.71
Oc1nc(N2CCOC3(CCCC3)C2)ncc1F	2.57	> 10	4.27	> 10	> 10
CCN(CCN(C)C)C(=O)c1cccc(-c2ccc3nccc(N)c3c2)c1	1.23	1	1.35	> 10	1.74
Cc1cc(-c2cc(O)cc(CC[C@H]3CCCCN3)c2)ccn1	0.501	0.269	0.269	> 10	2.95
Cc1ccc(CN2CCN(C[C@@H](O)Cn3c4ccccc4n4c(=O)cc(C)c(C#N)c34)CC2)c(C)c1	1.35	3.24	3.55	> 10	1.62
COc1ccccc1CN1COc2cc3c(cc2C1)OCO3	1.58	2.29	2.09	> 10	1.91
CCOc1cc(-c2cc(-c3ccccc3O)nc3ccc4ccccc4c23)cc(Br)c1O	1.62	2.63	2.82	> 10	3.63
Cn1n[n+](CCCCC(Cl)(Cl)Cl)c2ccccc21	2.82	2.88	3.31	> 10	> 10
Cc1nnc(CNC(=O)Nc2cccc3c4c(oc23)CCCC4)o1	2.14	2.63	2.19	> 10	2.88
Nc1nc(C2CC(N)C2)cc(N2CCC(Oc3ccccc3Cl)CC2)n1 (stereo not given)	1.82	3.24	4.07	> 10	3.16
COc1nc(NC2CCS(=O)(=O)CC2)ncc1F	0.0479	> 10	0.0832	> 10	> 10
Cc1cc(N2CCC3(CCCN3Cc3cc(C#N)n(C)c3C)CC2)c2ccccc2n1	1.95	1.86	3.39	> 10	> 10
O=C1NCCCOc2cccc(c2)[C@H]2c3ccc(cc3CCN2C(=O)CCN2CCOCC2)Oc2ccc(O)c1c2	2.24	4.07	8.13	> 10	> 10
CN1CCN(C2(CNc3ccnc4ccccc34)CCCC2)CC1	0.479	0.355	0.38	> 10	0.708
